The values below come from patent US5110725A, “Optical probe for the cytochrome P-450 cholesterol side chain cleavage enzyme” (The United States of America as represented by the United …, priority 1991, dated 1992).

The target in data set [1] is T1, P-450scc enzyme (Gallus gallus, UniProt O13254).
T1 sequence (O13254 32-508): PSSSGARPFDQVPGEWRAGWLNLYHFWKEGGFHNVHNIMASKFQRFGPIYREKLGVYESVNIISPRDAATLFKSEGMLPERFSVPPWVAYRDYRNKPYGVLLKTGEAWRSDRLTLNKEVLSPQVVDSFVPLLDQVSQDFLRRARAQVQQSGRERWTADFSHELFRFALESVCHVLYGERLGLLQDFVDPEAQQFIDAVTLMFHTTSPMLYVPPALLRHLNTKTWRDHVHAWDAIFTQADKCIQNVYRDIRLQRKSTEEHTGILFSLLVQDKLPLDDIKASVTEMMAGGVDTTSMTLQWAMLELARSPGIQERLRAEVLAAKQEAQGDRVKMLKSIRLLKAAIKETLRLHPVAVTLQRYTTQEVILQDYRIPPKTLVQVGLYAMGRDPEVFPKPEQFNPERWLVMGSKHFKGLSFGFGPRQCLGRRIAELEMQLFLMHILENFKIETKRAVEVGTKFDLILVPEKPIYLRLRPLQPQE
Put plainly: Spectrofluorometry of resorufin production in mitochondrial preparations from chicken granulosa and MA-10 cells. The conditions noted are these: for effect of inhibitor on observed resorufin fluorescence: added to steroidogenic mitochondrial preparations incubated with the probe. In kind it is biochemical. The procedure: (§1) A saturated stock solution of probe 10 was made in 95% ethanol and filtered with a 0.2 μm filter to a concentration of 100 μM. Probe 10 was added at 1:50 or 1:100 dilutions to cell or mitochondria suspensions.
(§2) Cell Preparations: Granulosa cell layers were collected separately from the 5 largest preovulatory follicles of laying hens and cells were dispersed by collagenase digestion (Endocrinology 122:651-658). The cell concentration was adjusted to 1×10^6 cells/mL in modified medium 199 (no phenol red; added 25 mM HEPES, 0.35 g/L sodium bicarbonate, 100 mg/L 1-glutamate, and 1 g/L bovine serum albumin). The MA-10 cells (Endocrinology 108:88-95) were grown in RPMI-1640 medium supplemented with 15% horse serum and used three days after plating. Cell cultures of the Chinese hamster ovary (CHO) cell line were grown in spinner flasks with Ham's F-10 medium supplemented with 15% bovine calf serum. Media were obtained from Gibco BRL (Gaithersburg, Md.) and sera were obtained from HyClone Laboratories (Logan, Utah). Except where indicated all other reagents for cell preparations were obtained from Sigma Chemical Co. (St. Louis, Mo.). Cells in suspension (1×10^6 /mL) were kept on ice prior to use and at 37° C. during all incubations with probe 10.
Spectrofluorometry: Fluorescence emission measurements were obtained on a SPEX Fluorolog-II spectrofluorometer (SPEX Industries, Inc., Edison, N.J.) fitted with a thermostatted cuvette holder and interfaced to an IBM-AT computer for data collection and processing. Resorufin fluorescence was measured from 550-700 nm (8 nm slit width) with 530 nm excitation (10 nm slit width). Spectra were background-corrected by spectral subtraction of the initial (zero) time point. Samples were incubated at 37° C. during the experiment.

A further data set concerns P-450scc. The data set is described as follows: Selectivity of the probe in intact mitochondria and cells. It counts as cell-based. As for the experimental part: as §1
The subject of data set [2] is granulosa cells. Put plainly: Fourier transform flow cytometry of substrate metabolism in individual granulosa cells. It counts as cell-based, laying hens. As for the experimental part:
as §2, with “Except where indicated all other reagents for cell preparations were obtained from Sigma Chemical Co. (St. Louis, Mo.). Cells in suspension (1×10^6 /mL) were kept on ice prior to use and at 37° C. during all incubations with probe 10.” left out
The Fourier transform flow cytometer was used to track the metabolism of the fluorogenic substrate in individual granulosa cells. […] Using this instrument, cellular fluorescence of the substrate is resolved from the cellular fluorescence of the product, resorufin anion, based on their unique spectral characteristics during the uptake and metabolism of the P-450scc probe.
(§3) By monitoring spectral changes in the cellular fluorescence at discrete time points from 30 min to 5 h with the FTCS-1 an increased metabolism of the substrate to the product resorufin was observed. […]
On the technique in general: Flow cytometry measures light scatter and fluorescence of single cells or particles in a stream.

The subject of data set [3] is nonsteroidogenic CHO cells. Put plainly: Fourier transform flow cytometry with nonsteroidogenic CHO cells. In kind it is cell-based, Chinese hamster. As for the experimental part:
as §2
A single argon laser tuned to 514 nm was used to excite both the substrate and product. […]
as §3

For data set [4], the system named is granulosa cells. Put plainly: Conventional two-laser flow cytometric analysis of P-450scc activity in granulosa cells. The conditions noted are these: 37° C., 5 min to 2 h. It counts as cell-based, laying hens. The procedure: as §2
Uptake of the substrate (green fluorescence) plateaued at 30 minutes, presumably as the cells equilibrated with the P-450scc probe in solution.

Data set [5] is described as follows: Fluorescence quantum efficiency relative to the resorufin anion. In kind it is physicochemical. The conditions noted are these: resorufin conjugated at C-22. From the text:
Referring now to FIG. 2, the P-450scc probe 10 is a cholene-based steroid covalently conjugated at the C-22 position to resorufin. As a result of this conjugation the resorufin fluorescence is shifted and has a 40-fold lower quantum efficiency than the resorufin anion. Specificity of probe 10 for the P-450scc enzyme is achieved by incorporating known structural and stereochemical features to the cholene-ring for enzyme recognition. Generation of a fluorescent signal is obtained by release of the resorufin moiety 16 by the side chain cleavage enzyme.
Resorufin (7-hydroxy-3H-phenoxazin-3-one) was chosen as a fluorogenic reporter because of its advantageous spectral properties and its modest size. […] Presumably, metabolism of a resorufin ether 10 by P-450scc proceeds by hydroxylation at the C-1 position of the ether side chain, to yield a resorufin hemiacetal that undergoes cleavage to afford the highly fluorescent resorufin anion. The fluorescence signal generated by the formation of resorufin anion is a quantitative indicator of enzyme activity.

Data set [6] is classed as physicochemical. The conditions noted are these: 95% ethanol. As for the experimental part: as §1
Data set [7] has as its system P-450scc enzyme. Put plainly: Spectrofluorometry of probe metabolism in MA-10 and granulosa cell suspensions. In kind it is cell-based. The procedure: as §1
(§4) Cell Preparations: Granulosa cell layers were collected separately from the 5 largest preovulatory follicles of laying hens and cells were dispersed by collagenase digestion (Endocrinology 122:651-658). The cell concentration was adjusted to 1×10^6 cells/mL in modified medium 199 (no phenol red; added 25 mM HEPES, 0.35 g/L sodium bicarbonate, 100 mg/L 1-glutamate, and 1 g/L bovine serum albumin). […]
(§5) Spectrofluorometry: Fluorescence emission measurements were obtained on a SPEX Fluorolog-II spectrofluorometer (SPEX Industries, Inc., Edison, N.J.) fitted with a thermostatted cuvette holder and interfaced to an IBM-AT computer for data collection and processing. Resorufin fluorescence was measured from 550-700 nm (8 nm slit width) with 530 nm excitation (10 nm slit width). […]
To confirm cellular metabolism, both MA-10 and granulosa cell suspensions were incubated with varying concentrations of the probe substrate. Fluorescence emission was monitored at discrete times from 0-4 h. […] Based on the amount of fluorescence in a typical cell incubation the cumulative conversion of the probe was in the concentration range of 100-300 pM. […]

Data set [8] has as its system nonsteroidogenic CHO cells. Put plainly: Spectrofluorometry with mitochondrial preparations from nonsteroidogenic CHO cells. It counts as biochemical, Chinese hamster. As for the experimental part:
as §1
as §2, with “Except where indicated all other reagents for cell preparations were obtained from Sigma Chemical Co. (St. Louis, Mo.). Cells in suspension (1×10^6 /mL) were kept on ice prior to use and at 37° C. during all incubations with probe 10.” left out
as §5

Another data set relates to granulosa or MA-10 cells. Put plainly: Progesterone radioimmunoassay after incubation of granulosa or MA-10 cells with the probe. In kind it is cell-based. The settings on record: 3-5 h incubation, 1-2 μM probe. The procedure: as §4, with “albumin). The MA-10 cells (Endocrinology 108:88-95) were grown in RPMI-1640 medium supplemented with 15% horse serum and used three days after plating. Cell cultures of the Chinese hamster ovary (CHO) cell line were grown in spinner flasks with Ham's F-10 medium supplemented with 15% bovine calf serum.” for “albumin).”
To confirm cellular metabolism, both MA-10 and granulosa cell suspensions were incubated with varying concentrations of the probe substrate. Fluorescence emission was monitored at discrete times from 0-4 h. […] Based on the amount of fluorescence in a typical cell incubation the cumulative conversion of the probe was in the concentration range of 100-300 pM. After long (3-5 h) incubations of granulosa or MA-10 cells with a high concentration (1-2 μM) of the P-450scc probe, a two-fold accumulation of progesterone over the background progesterone content of the cells was measured by specific progesterone radioimmunoassay (Endocrine Sciences, Tarzana, Calif.).

On to `CCC1(c2ccc(N)cc2)CCC(=O)NC1=O` (stereo not shown) [aminoglutethimide], for which the “effect of inhibitor on observed resorufin fluorescence” value at P-450scc enzyme [1] was “attenuated the observed fluorescence”.
The same measure, in the same setting: the same measure for `CC(=O)N1CCN(c2ccc(OCC3COC(Cn4ccnc4)(c4ccc(Cl)cc4Cl)O3)cc2)CC1` (stereo not shown) [ketoconazole]: “attenuated the observed fluorescence”.
With `C[C@H](COc1ccc2nc3ccc(=O)cc-3oc2c1)[C@H]1CC[C@H]2[C@@H]3CC=C4C[C@@H](O)CC[C@]4(C)[C@H]3CC[C@]12C` [probe 10, 22-phenoxazonoxy-5-cholene-3β-ol], the selectivity entry in the data set with P-450scc is listed as “selective for P-450scc activity”. In the data set on granulosa cells [2] (30 min to 5 h), the “average ratio of the two fluorescent components (substrate and resorufin) over time” value was “linear increase”. For the same molecule, the “alignment of the cell distribution with the product resorufin” value with granulosa cells [2] (after 5 h) is around 100%. For the same molecule, the cellular fluorescence spectrum entry in [3] (CHO cells, 3 h incubation) is given as “remained primarily consistent with the substrate spectrum”. In addition, the “metabolism of the substrate to resorufin” value in data set [3] (nonsteroidogenic CHO cells) was “no evidence of significant metabolism”. In addition, at P-450scc enzyme [1] (steroidogenic mitochondria (chicken granulosa, MA-10), 30 min to 5 h, substrate 0.01 to 2 μM), the resorufin production result is reported as “resorufin production was observed”. In the data set on granulosa cells [4], the “product (red fluorescence) in cells during incubation” value is reported as “continued to increase” and the “time at which uptake of the substrate (green fluorescence) plateaued” value was found to be 30 min. In addition, the “quantum efficiency lower than the resorufin anion” value in data set [5] stood at 40 fold. Also, the “concentration of saturated stock solution” value in data set [6] is 100 µM. Moreover, the “resorufin fluorescence over time” value with P-450scc enzyme [7] (MA-10 and granulosa cell suspensions, 0-4 h, varying probe concentrations) is on record as “linear increase in resorufin fluorescence”. The “cumulative conversion of the probe” value in the data set on P-450scc enzyme [7] (typical cell incubation, based on amount of fluorescence) fell in the range of 100 to 300 pM. Also, the production of fluorescence entry in [8] is listed as “no production of fluorescence”. For the same molecule, the “accumulation of progesterone over background progesterone content of the cells” value in the data set on granulosa or MA-10 cells is “two-fold”.
